How the values were obtained:
MTT reduction = type: cell-based; conditions: rat, NRK cells, read-out: MTT TC50
Excerpt: Tetrazolium Dye Reduction: 3-[4,5-dimethylthiazol-2-yl]
The third experiment was done to evaluate the specificity and selectivity of the test compound in another non-tumor cell that was derived from normal rat kidney tissue. In this experiment the test compound has no effect on cell number of acute cell death up to the 500 dilution after 6 and 24 hr of exposure (FIG. 76C and 77C). Significant effects were observed on mitochondrial markers at dilutions that dropped pH to 3.7. The bar graph in FIG. 82 summarizes these effects. […] In contrast the rat tumor cell line was sensitive to the test compound and cell death occurred at the 500 dilution and could not be attributed to low pH.

NHEM cells = experiment: Membrane lipid peroxidation (8-isoprostane ELISA); conditions: 24 HR
Protocol: (§1) Lipid Peroxidation Measured as 8-Isoprostane (8-ISO): 8-ISO levels were determined using an ELISA. 8-ISO is a member of a family of eicosanoids produced non-enzymatically by random oxidation of tissue phospholipids by oxygen radicals. Therefore, an increase in 8-ISO is an indirect measure of increased lipid peroxidation (Vacchiano and Tempel, 1994). At the end of the exposure period, plates were either analyzed immediately or stored at −80° C. until needed for analysis. Color development, which is […] to the amount of 8-ISO present in the sample, was read on a Packard Fusion or equivalent plate reader at 415 nm.
(§2) Lipid Peroxidation Measured as 8-Isoprostane (8-ISO): Background absorbance produced from Ellman's reagent is subtracted from all wells. Non-specific binding is subtracted from the maximum binding wells to give a corrected maximum binding expressed as Bo. The percent of bound (B) relative to maximum binding capacity (Bo) for all unknown samples and for standards was determined an expressed as (% B/Bo). The % B/Bo for standards was plotted against the log of 8-ISO added to yield the final standard curve. This curve was used to convert % B/Bo to pg 8-ISO/mL of sample.
(§3) The test compound consisted of two parts mixed in a constant ratio of 5:1. The final test mixture consisted of Test mix 1 and Test mix 2, which were received as frozen solutions. The test mixture was tested in a ratio of 5:1 COMP A in five different cell types which included the following: SK-MEL28, human hepatocytes, HUVEC, C32, and NHEM cells. Cells were seeded into 96-well plates and cultured in medium containing 10% bovine serum. Following an equilibration period of 48 hr, the cells were treated with the test compound mix at concentrations of COMP A (μg/mL)=(250:50), (125:25), (25:12.5), (12.5:2.5), (2.5:1.25), (1.25:0.25), and (0.25:0.05) for 24 hr (overnight) at 37° C. in 5% CO2. […] Following an equilibration period of 4 hr, the cells were treated with the test compound mix at concentrations of COMP A (μg/mL)=(250:50), (125:25), (25:12.5), (12.5:2.5), (2.5:1.25), (1.25:0.25), and (0.25:0.05) for 24 hr (overnight) at 37° C. in 5% CO2.
(§4) Experimental Protocol: The test compounds were shipped on dry ice for testing. The compounds were stored frozen at −80° C. until needed. Dosing solutions were prepared in complete culture medium. SK-MEL28, human hepatocytes, HUVEC, C32, and NHEM cells were used as the test systems. Cells were seeded into 96-well plates and allowed to equilibrate for approximately 48 hr. Following the equilibration period the cells were exposed to the test compound mix at concentrations of COMP A (μg/mL)=(250:50), (125:25), (25:12.5), (12.5:2.5), (2.5:1.25), (1.25:0.25), and (0.25:0.05). Solubility was determined by Nephalometry techniques immediately after dosing and prior to harvesting the cells at 24 hr. Following the exposure period, the cells or their supernatant (culture medium) were analyzed for changes in cell proliferation, membrane leakage, mitochondrial function, oxidative stress, and apoptosis. The resultant exposure concentration response curves were graphed and analyzed for determining the concentration that produced a half maximal response or TC50.

C32 cells = experiment: Membrane lipid peroxidation (8-isoprostane ELISA); conditions: C32, 24 HR
Protocol: as §1, §2, §3, §4

HUVEC [1] = experiment: Membrane lipid peroxidation (8-isoprostane ELISA); conditions: 24 HR
Protocol: as §1, §2, §3, §4

human hepatocytes = experiment: Membrane lipid peroxidation (8-isoprostane ELISA); conditions: 24 HR
Protocol: as §1, §2, §3, §4

SK-MEL28 cells = experiment: Predicted Ctox from Tox-Panel; type: cell-based, human; conditions: SK-MEL28, 24 HR
Protocol: (§5) Studies such as these indicate that a preferred concentration for setting Ctox is the highest concentration at which there is no observed effect on any of the indicators being measured in the cluster analysis, especially a 24-hour cluster analysis. […] It will be apparent that 24 hour assays are more time-effective, and consequently, the 24 hour NOEL/Ctox represents a preferred data point to select as Ctox in a CATS assay. It will also be apparent that, with further time studies, it may be possible to select an equally suitable Ctox at other CATS assay time points (e.g., between 24 and 72 hours, or less than 24 hours).
(§6) In certain embodiments, the predicting comprises performing concentration response analyses of measurements from at least three separate assays that are employed in the cluster analysis. For example, in the cell health cluster, such predicting will involve monitoring the concentration response effect of the compound on a first health indicator which monitors cellular replication, a second cell health indicator which monitors mitochondrial function, and a third cell health indicator which monitors membrane integrity. Of course, it is understood that fourth, fifth, sixth or more cell health indicators also may be employed. From these concentration response analyses, the highest concentration of the chemical compound at which a measurable toxic effect of the chemical compound is not observable, i.e. NOEL, is determined and the Ctox is identified as the concentration that correlates to the NOEL. In choosing the concentrations of the compound for analysis, one of skill in the art should devise a dose response regimen which is selected to provide an indication of cell health at concentrations of at least two concentration values higher than the Ctox concentration.
(§7) The results are summarized in Tables 14-17 and in FIGS. 83-102. Table 14 compares the test compound TC50 values for each assay endpoint. Test compounds are rank-ordered from most to least toxic based on their TC50 values and overall shape of the response curves. The Ctox value, or estimated sustained blood concentration where toxicity would first be expected to occur in a rat 14-day repeated dose study, is also included in this table. Negative and positive controls are included with every run. Assay response is continually monitored to assure reliable results. […] Table 15 summarizes oxidative stress and apoptosis data, Table 16 summarizes the solubility data, and Table 17 provides information on interaction with PgP.
(§8) The Ctox value was developed using 24 hr in vitro (H4IIE) toxicity data and was validated by retrospectively evaluating compounds across different classes of drugs in 14-day rat studies in which compounds were administered on a daily basis and pharmacokinetic data was available. […] Thus, Ctox values are only determined for the 24 hr in vitro results. In this example, Ctox values could not be estimated due to low toxicity in most of the cell lines.

HUVEC [2] = experiment: Predicted Ctox from Tox-Panel; type: cell-based, human; conditions: 24 HR
Protocol: as §5, §6, §7, §8

For CC[C@@]1(O)C(=O)OCc2c1cc1n(c2=O)Cc2cc3ccccc3nc2-1 [CAMPTOTHECIN, Camptothecin], the CC50 at 6 h (MTT reduction) was 300 µM, the CC50 at 24 h (MTT reduction) was 100 µM and the “Membrane Lipid Peroxidation” value (NHEM cells) was 1 (1 = Modest increase with maximum values ≦15 pg/mL). The “Membrane Lipid Peroxidation” value (C32 cells) was 0, the “Membrane Lipid Peroxidation” value (HUVEC [1]) was 2 (2 = Concentration related increase with maximum values ≧15 pg/mL) and the “Membrane Lipid Peroxidation” value (human hepatocytes) was 1 (1 = Modest increase with maximum values ≦15 pg/mL). For the same compound, the “Predicted Ctox” value (SK-MEL28 cells) was 0.1 µM, the “Predicted Ctox” value (SK-MEL28 cells; run #2) was 0.1 µM and the “Predicted Ctox” value (HUVEC [2]) was 0.1 µM.

With C=C(C)[C@H]1Cc2c(ccc3c2O[C@@H]2COc4cc(OC)c(OC)cc4[C@@H]2C3=O)O1 [ROTENONE, Rotenone] the CC50 at 6 h (MTT reduction) was 10 µM, the CC50 at 24 h (MTT reduction) was 10 µM and the “Membrane Lipid Peroxidation” value (NHEM cells) was 2 (2 = Concentration related increase with maximum values ≧15 pg/mL). The “Membrane Lipid Peroxidation” value (C32 cells) was 0, the “Membrane Lipid Peroxidation” value (HUVEC [1]) was 1 (1 = Modest increase with maximum values ≦15 pg/mL) and the “Membrane Lipid Peroxidation” value (human hepatocytes) was 0. The “Predicted Ctox” value (SK-MEL28 cells) was 1 µM, the “Predicted Ctox” value (SK-MEL28 cells; run #2) was 0 µM and the “Predicted Ctox” value (HUVEC [2]) was 0.1 µM.

Source: US7615361B2, “Toxicity screening methods” (Ceetox, Inc., priority 2006, dated 2009)
